Source: PubChem BioAssay (NCI)
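Briefly, cells in 96-well plates were exposed to five compound concentrations for 48 h, and endpoints were estimated by linear interpolation. TGI is the concentration that stops growth completely.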

Experiments:
Assay in all cases: growth of human tumour cells (NCI), 48 h
[1] = system: SK-MEL-2 melanoma
[2] = system: HOP-62 NSCLC
[3] = system: NCI-H23 lung
[4] = system: PC-3 prostate
[5] = system: NCI-H460 lung
[6] = system: EKVX NSCLC
[7] = system: OVCAR-3 ovarian
[8] = system: U251 CNS
[9] = system: LOX IMVI melanoma
[10] = system: HS 578T breast
[11] = system: HL-60(TB) leukemia
[12] = system: KM12 colon
[13] = system: CAKI-1 renal
[14] = system: SW-620 colon
[15] = system: M14 melanoma
[16] = system: UACC-257 melanoma
[17] = system: NCI-H226 lung
[18] = system: MDA-N
[19] = system: DU-145 prostate
[20] = system: MCF7 breast
[21] = system: RPMI-8226 leukemia
[22] = system: K-562 leukemia
[23] = system: RXF 393 renal
[24] = system: BT-549 breast
[25] = system: OVCAR-5 ovarian
[26] = system: SK-MEL-28 melanoma
[27] = system: SF-268 CNS
[28] = system: IGROV1 ovarian
[29] = system: SK-MEL-5 melanoma
[30] = system: OVCAR-8 ovarian
[31] = system: SF-539 CNS
[32] = system: CCRF-CEM leukemia
[33] = system: HCT-116 colon
[34] = system: SF-295 CNS
[35] = system: TK-10 renal
[36] = system: A549 NSCLC
[37] = system: SNB-19 CNS
[38] = system: MOLT-4 leukemia
[39] = system: T-47D breast
[40] = system: HOP-92 NSCLC
[41] = system: NCI/ADR-RES ovarian
[42] = system: MDA-MB-231 breast
[43] = system: OVCAR-4 ovarian
[44] = system: HT29 colon
[45] = system: COLO 205 colon
[46] = system: HCT-15 colon
[47] = system: UACC-62 melanoma
[48] = system: SN12C renal
[49] = system: A498 renal
[50] = system: MDA-MB-435
[51] = system: SR leukemia
[52] = system: UO-31 renal
[53] = system: ACHN renal
[54] = system: NCI-H522 lung
[55] = system: HCC-2998 colon
[56] = system: SNB-75 CNS
[57] = system: SK-OV-3 ovarian
[58] = system: 786-0 renal
[59] = system: MALME-3M melanoma

Cc1cc(C)c(P2C(=C(O[Si](C(C)C)(C(C)C)C(C)C)C(C)(C)C)C2(c2ccccc2)c2ccccc2)c(C)c1 (centres undefined)
TGI [1]: > 100 µM | TGI [2]: > 100 µM | TGI [3]: > 100 µM | TGI [4]: > 100 µM | TGI [5]: > 100 µM | TGI [6]: > 100 µM | TGI [7]: > 100 µM | TGI [8]: > 100 µM | TGI [9]: > 100 µM | TGI [10]: > 100 µM | TGI [11]: > 100 µM | TGI [12]: > 100 µM | TGI [13]: > 100 µM | TGI [14]: > 100 µM | TGI [15]: > 100 µM | TGI [16]: > 100 µM | TGI [17]: > 100 µM | TGI [18]: > 100 µM | TGI [19]: > 100 µM | TGI [20]: > 100 µM | TGI [21]: > 100 µM | TGI [22]: > 100 µM | TGI [23]: > 100 µM | TGI [24]: > 100 µM | TGI [25]: > 100 µM | TGI [26]: > 100 µM | TGI [27]: > 100 µM | TGI [28]: > 100 µM | TGI [29]: > 100 µM | TGI [30]: > 100 µM | TGI [31]: > 100 µM | TGI [32]: > 100 µM | TGI [33]: > 100 µM | TGI [34]: > 100 µM | TGI [35]: > 100 µM | TGI [36]: > 100 µM | TGI [37]: > 100 µM | TGI [38]: > 100 µM | TGI [39]: > 100 µM | TGI [40]: > 100 µM | TGI [41]: > 100 µM | TGI [42]: > 100 µM | TGI [43]: > 100 µM | TGI [44]: > 100 µM | TGI [45]: > 100 µM | TGI [46]: > 100 µM | TGI [47]: > 100 µM | TGI [48]: > 100 µM | TGI [49]: > 100 µM | TGI [50]: > 100 µM | TGI [51]: > 100 µM | TGI [52]: > 100 µM | TGI [53]: > 100 µM | TGI [54]: > 100 µM | TGI [55]: > 100 µM | TGI [56]: > 100 µM | TGI [57]: > 100 µM | TGI [58]: > 100 µM

CN(C)/N=C/c1cn(C)c(=O)n(C)c1=O
TGI [1]: > 100 µM | TGI [2]: > 100 µM | TGI [3]: > 100 µM | TGI [4]: > 100 µM | TGI [5]: > 100 µM | TGI [6]: > 100 µM | TGI [7]: > 100 µM | TGI [8]: > 100 µM | TGI [9]: > 100 µM | TGI [10]: > 100 µM | TGI [11]: > 100 µM | TGI [12]: > 100 µM | TGI [13]: > 100 µM | TGI [14]: > 100 µM | TGI [15]: > 100 µM | TGI [16]: > 100 µM | TGI [17]: > 100 µM | TGI [18]: > 100 µM | TGI [19]: > 100 µM | TGI [20]: > 100 µM | TGI [21]: > 100 µM | TGI [22]: > 100 µM | TGI [23]: > 100 µM | TGI [24]: > 100 µM | TGI [25]: > 100 µM | TGI [26]: > 100 µM | TGI [59]: > 100 µM | TGI [27]: > 100 µM | TGI [28]: > 100 µM | TGI [29]: > 100 µM | TGI [30]: > 100 µM | TGI [31]: > 100 µM | TGI [32]: > 100 µM | TGI [33]: > 100 µM | TGI [34]: > 100 µM | TGI [35]: > 100 µM | TGI [36]: > 100 µM | TGI [37]: > 100 µM | TGI [38]: > 100 µM | TGI [39]: > 100 µM | TGI [40]: > 100 µM | TGI [41]: > 100 µM | TGI [42]: > 100 µM | TGI [43]: > 100 µM | TGI [44]: > 100 µM | TGI [45]: > 100 µM | TGI [46]: > 100 µM | TGI [47]: > 100 µM | TGI [48]: > 100 µM | TGI [49]: > 100 µM | TGI [50]: > 100 µM | TGI [52]: > 100 µM | TGI [53]: > 100 µM | TGI [54]: > 100 µM | TGI [55]: > 100 µM | TGI [56]: > 100 µM | TGI [57]: > 100 µM | TGI [58]: > 100 µM

CC(C)=CCC[C@@H](C)C1=C(Nc2ccccc2Cl)C(O)=C(C)C(=O)C1=O
TGI [1]: 19.2 µM | TGI [2]: 22.7 µM | TGI [3]: 15.9 µM | TGI [4]: > 100 µM | TGI [5]: > 100 µM | TGI [6]: 29.7 µM | TGI [7]: 16.5 µM | TGI [8]: 38 µM | TGI [9]: 98.4 µM | TGI [10]: 13.1 µM | TGI [11]: 2.94 µM | TGI [12]: 17.7 µM | TGI [13]: 16 µM | TGI [14]: > 56.4 µM | TGI [15]: 33.5 µM | TGI [16]: 27.7 µM | TGI [17]: 25.3 µM | TGI [18]: 27 µM | TGI [19]: 29.3 µM | TGI [20]: > 100 µM | TGI [21]: > 28.7 µM | TGI [22]: > 64.1 µM | TGI [23]: 32.7 µM | TGI [24]: 36.3 µM | TGI [25]: > 52 µM | TGI [26]: 33.5 µM | TGI [59]: 18.7 µM | TGI [27]: 20.2 µM | TGI [28]: > 39.1 µM | TGI [29]: 10.1 µM | TGI [30]: 9.09 µM | TGI [31]: 19.8 µM | TGI [33]: > 43.7 µM | TGI [34]: 14 µM | TGI [35]: > 100 µM | TGI [36]: 15.7 µM | TGI [37]: 26.8 µM | TGI [38]: 25.1 µM | TGI [39]: 34.1 µM | TGI [40]: 29.3 µM | TGI [41]: 27.1 µM | TGI [42]: > 100 µM | TGI [43]: 43.3 µM | TGI [44]: 13.6 µM | TGI [45]: 9.8 µM | TGI [46]: 36 µM | TGI [47]: 18 µM | TGI [48]: 25.2 µM | TGI [49]: 27.4 µM | TGI [50]: 36.1 µM | TGI [51]: > 57.6 µM | TGI [52]: 17.9 µM | TGI [53]: 11.1 µM | TGI [54]: 12.2 µM | TGI [55]: 31 µM | TGI [56]: 22.3 µM | TGI [57]: 33.5 µM | TGI [58]: > 39.1 µM
